Marks after values point to notes of the source that are not given here.
How the values were obtained:
developing embryos = assay: Embryo development at E14.5 after daily LCM administration to dams (litters, resorptions, litter size, malformations); type: in vivo, mice; settings: for CR length (cm): crown-rump
Protocol: Thus, we used 10, 40, 80 and 120 mg/kg in mice, which corresponded to 56.7, 227, 454 and 681 mg/day in humans, considering an average weight of human to be 70 kg and that of mice to be 30 gr[52],[55]. Controls were administered the vehicle alone: saline solution 0.9% w/v. […] A total of 32 dams were initially treated daily, two days before mating and until the 14th day post-coitus. […] In the breastfeeding period, females were not under treatment given that a person will bottle feed the baby if they were on medication.
Maternal weights were assessed at the end of the treatment periods. After 14.5 days of gestation (embryonic day14.5, E14.5), blood was extracted from the orbital sinus of the pregnant dams under anaesthesia (70 mg/kg Thiobarbital: Braun Medical S.A. Spain), as described previously[56] and sacrificed by neck dislocation immediately after. Blood samples were centrifuged immediately, and the serum was collected and stored at -80 °C for further chemical analysis.
The E14.5 embryos were collected and fixed in 4% paraformaldehyde for 4 h and then kept at 4 °C in 70% ethanol. The litter size of each dam was recorded, and embryos were assessed for external malformations and photographed on a stereomicroscope (SteREO Discovery V8 + AxioCam Erc8, Zeiss, Oberkochen, Germany). The crown-rump lengths of embryos were measured in the photographs using ImageJ software (downloaded as a free software package from the public domain: http://rsb.info.nih.gov/ij/download.html) and based on the reference points described previously. Embryos were then embedded in paraffin, sectioned at 10, 7 and 5 μm, and stained with Ehrlich Haematoxylin & Eosin (H&E) for histology analysis. Representative sections were selected from at least three embryos for each condition and photographed on an Olympus (Tokyo, Japan) BX-61 photomicroscope.

adult male mice [1] = assay: Startle response/prepulse inhibition (PPI) test; type: in vivo
Protocol: (§1) All trials were performed by an experimenter blind to the drug treatment.
Startle response/prepulse inhibition (PPI) test. Animals were placed individually inside a startle chamber (Cibertec S.A., Madrid, Spain) and the startle response was measured using a piezoelectric accelerometer controlled by a computer. The digitized signal was averaged from 25–30 recordings. For training, the mouse was placed in the startle chamber for an acclimation period of 3 min. Baseline responses were averaged after the presentation of 20 sounds (125 dB, 100 ms long) and from this phase, the average response and peak latencies, and the peak response were determined. During PPI trials, the same 125-dB 100-ms burst was preceded (250 ms) by a prepulse stimulus of 85 dB, lasting for 50 ms. Trials including prepulse stimuli were randomly presented with normal startle stimuli, the final total being 25 of each, and the proportion of PPI was determined as [(1-prepulse/startle)*100]. The ambient background noise was 70 dB.

adult male mice [2] = assay: Tail suspension test; type: in vivo; settings: 5 minutes
Protocol: as §1
Tail suspension test. Depression-like behaviour in mice was determined by measuring the time spent immobile in the tail suspension test. Mice were suspended above the floor by attaching the end of their tail to wire netting, and the time spent immobile during a 5 min test session was measured.

[3] = Nissl staining and immunohistochemistry (calbindin, calretinin, doublecortin) of adult brain; type: in vivo, mice
Protocol: (§2) As formerly described by[59], mice from each experimental group were anesthetized with 4% of chloral hydrate (10 µL/g of weight) and trans-cardiacally perfused with cold saline. Brains were removed and fixed by immersion for 24 h at 4 °C in 4% paraformaldehyde prepared in phosphate-buffered saline (PBS). Tissue was cryoprotected in 30% sucrose-PBS for 2 days at 4 °C and coronal brain sections (50 µm) were then processed for Nissl staining and free-floating immunohistochemistry. Sections encompassed roughly between 2.80 mm to -2.80 mm from Bregma[60] were selected for Toluidine blue staining and immunohistochemical processing. Brain slices from all animals were processed simultaneously in each assay. Immunohistochemistry assays were performed with free-floating sections and an avidin-biotinylated peroxidase method. Primary antibodies used were calbindin (CB, 1:500, Santa Cruz, sc-365360), calretinin (CR, 1:1000, Santa Cruz, sc-26512) and doublecortin (DCX, 1:500, Santa Cruz, sc-8066). Secondary biotinylated antibodies were used (1:500). […] Several control sections were processed without the primary antibody, showing no signal. To minimize variability, at least 2 sections from each area were analysed per animal on a bright-field DMRB RFY HC microscope (Leica) using a 10X objective. For DCX quantification images were taken using a 20X objective and later a whole image of dentate gyrus was reconstructed using Photoshop tiling function. In each section, the total number of labelled cells per area of tissue was quantified using Image-J software (downloaded as a free software package from the public domain: http://rsb.info.nih.gov/ij/download.html). 6 different animals were processed for each primary antibody and pharmacologic treatment from 10 litters.

adult mouse neocortex = assay: as above; type: in vivo, mice
Protocol: as §2

[4] = 10 mg/kg LCM daily i.p. to dams
[5] = 40 mg/kg LCM daily i.p. to dams
[6] = 80 mg/kg LCM daily i.p. to dams
[7] = 120 mg/kg LCM daily i.p. to dams
[8] = High doses (80 or 120 mg/kg LCM daily i.p. to dams)
[9] = High doses (80 or 120 mg/kg LCM daily i.p. to dams), mean ± S.E.M., p < 0.05
[10] = Low doses (10 or 40 mg/kg LCM daily i.p. to dams)

COC[C@@H](NC(C)=O)C(=O)NCc1ccccc1 [LCM, R-2-acetamido-N-benzyl-3-methoxypropionamide]
Emb (no.) (developing embryos; [4]): 117 no.
Lost Litter (no.) (developing embryos; [4]): 0 no.
Malformation (%) (developing embryos; [4]): 4.3%
Resorpt (%) (developing embryos; [4]): 4%
CR length (cm) (developing embryos; [4]): 1.18 cm
Emb (no.) (developing embryos; [5]): 67 no.
Lost Litter (no.) (developing embryos; [5]): 0 no.
Malformation (%) (developing embryos; [5]): 7.4%
Resorpt (%) (developing embryos; [5]): 1.5%
CR length (cm) (developing embryos; [5]): 1.09 cm
Emb (no.) (developing embryos; [6]): 41 no.
Lost Litter (no.) (developing embryos; [6]): 1 no.
Malformation (%) (developing embryos; [6]): 12.2%
Resorpt (%) (developing embryos; [6]): 0%
CR length (cm) (developing embryos; [6]): 1.03 cm
Emb (no.) (developing embryos; [7]): 73 no.
Lost Litter (no.) (developing embryos; [7]): 1 no.
Malformation (%) (developing embryos; [7]): 2.7%
Resorpt (%) (developing embryos; [7]): 2.5%
CR length (cm) (developing embryos; [7]): 1.08 cm
Emb (no.) (developing embryos; [8]): 114 no.
Lost Litter (no.) (developing embryos; [8]): 2 no.
Malformation (%) (developing embryos; [8]): 6.1%
Resorpt (%) (developing embryos; [8]): 1.75%
CR length (cm) (developing embryos; [9]): 1.06 ± 0.08^b cm
Emb/dam (developing embryos; [9]): 9.5 ± 0.4^b
Emb (no.) (developing embryos; [10]): 184 no.
Lost Litter (no.) (developing embryos; [10]): 0 no.
Malformation (%) (developing embryos; [10]): 5.4%
Resorpt (%) (developing embryos; [10]): 3.2%
CR length (cm) (developing embryos; Low doses (10 or 40 mg/kg LCM daily i.p. to dams), mean ± S.E.M.): 1.1 ± 0.1 cm
number of embryos/litter (developing embryos; high doses of LCM (80 or 120 mg/kg), p = 0.02): 9.5 ± 0.4 embryo/litter
number of embryos/litter (developing embryos; low doses of LCM (10 or 40 mg/kg)): 12.2 ± 0.1 embryos/litter
PPI of the acoustic startle response (adult male mice [1]; 40 mg/kg in utero): 54.85 ± 4.27%
PPI of the acoustic startle response (adult male mice [1]; 120 mg/kg in utero): 23.19 ± 7.9%
acoustic startle reflex parameters (peak latencies, maximum peak response) (adult male mice [1]; LCM administration during gestation): did not modify any parameters
immobility time (tail suspension test) (adult male mice [2]; 40 mg/kg in utero): 82.58 ± 7.38 s
immobility time (tail suspension test) (adult male mice [2]; 120 mg/kg in utero): 109.0 ± 7.69 s
DCX labelling in ventral DG ([3]; 40 mg/kg in utero): 13.46 ± 1.03 cells/100 µm²
DCX labelling in ventral DG ([3]; 120 mg/kg in utero): 9.75 ± 0.85 cells/100 µm²
number of CR neurons in PrL cortex (adult mouse neocortex; 40 mg/kg in utero): 10.83 ± 1.12 cells/100 µm²
number of CR neurons in RSA cortex (adult mouse neocortex; 40 mg/kg in utero): 16.18 ± 1.23 cells/100 µm²
number of calbindin (CB) labelled neurons in the amygdala (adult mouse neocortex; 40 mg/kg in utero): 23.28 ± 2.98 cells/100 µm^2
number of CR neurons in PrL cortex (adult mouse neocortex; 120 mg/kg in utero): 13.03 ± 1.08 cells/100 µm²
number of CR neurons in RSA cortex (adult mouse neocortex; 120 mg/kg in utero): 16.94 ± 0.7 cells/100 µm²
number of calbindin (CB) labelled neurons in the amygdala (adult mouse neocortex; 120 mg/kg in utero): 13 ± 1.8 cells/100 µm^2

Reference: PMC7203245, “Lacosamide intake during pregnancy increases the incidence of foetal malformations and symptoms associated with schizophrenia in the offspring of mice” (Scientific Reports, 2020)
